US5326868A, “Certain aryl fused pyrrolopyrimidines; a new class of GABA brain receptor ligands” (Neurogen Corporation, priority 1993, dated 1994)

Assays:
GABAa receptor = GABAa receptor activity: displacement of 3H-RO15-1788 (3H-Flumazenil) binding in rat cortical tissue homogenate; details: 3H-RO15-1788 0.5 nM, 30 min at 4° C., pH 7.4, rat cortical tissue
Method: The pharmaceutical utility of compounds of this invention are indicated by the following assay for GABAa receptor activity.
Assays are carried out as described in Thomas and Tallman (J. Bio. Chem. 156: 9838-9842, J. Neurosci. 3: 433-440, 1983). Rat cortical tissue is dissected and homogenized in 25 volumes (w/v) of 0.05M Tris HCl buffer (pH 7.4 at 4° C.). The tissue homogenate is centrifuged in the cold (4°) at 20,000×g for 20'. The supernatant is decanted and the pellet is rehomogenized in the same volume of buffer and again centrifuged at 20,000×g. The supernatant is decanted and the pellet is frozen at -20° C. overnight. The pellet is then thawed and rehomogenized in 25 volume (original wt/vol) of buffer and the procedure is carried out twice. The pellet is finally resuspended in 50 volumes (w/vol of 0.05M Tris HCl buffer (pH 7.4 at […]).
Incubations contain […] of radioligand 0.5 nM (^3 H-RO15-1788 [^3 H-Flumazenil] specific activity 80 Ci/mmol), drug or blocker and buffer to a total volume of […]. Incubations are carried for 30 min at 4° C. then are rapidly filtered through GFB filters to separate free and bound ligand. Filters are washed twice with fresh 0.05M Tris HCl buffer (pH 7.4° at 4° C.) and counted in a liquid scintillation counter. […] diazepam is added to some tubes to determine nonspecific binding. Data are collected in triplicate determinations, averaged and % inhibition of total specific binding is calculated. Total Specific Binding=Total - Nonspecific. In some cases, the amounts of unlabeled drugs is varied and total displacement curves of binding are carried out. Data are converted to a form for the calculation of IC50 and Hill Coefficient (nH).

GABA receptor = details: Tallman et al., 1978; cited from earlier work

| IC50 (GABAa receptor) [nM] | SMILES | blocking of enhancement of benzodiazepine binding by GABA agonists (GABA receptor) |
| --- | --- | --- |
| 20 | c1ccc(-c2ncc3[nH]c4ccccc4c3n2)cc1 [Compound 4, 2-Phenyl-5H-indolo[3,2-d]pyrimidine] |  |
| 2.5 | COc1ccc(-c2ncc3[nH]c4ccccc4c3n2)c(F)c1 [Compound 1, 2-(2-Fluoro-4-methoxyphenyl)-5H-indolo[3,2-d]pyrimidine] |  |
|  | CN1CCc2cc3c(cc2[C@H]1[C@@H]1OC(=O)c2c1ccc1c2OCO1)OCO3 [(+) bicuculline] | blocked |
|  | CN1CCc2cc3c(cc2[C@@H]1[C@H]1OC(=O)c2c1ccc1c2OCO1)OCO3 [(-) bicuculline] | much less active |

| SMILES | IC50 (GABAa receptor) [nM] | blocking of enhancement of benzodiazepine binding by GABA agonists (GABA receptor) |
| --- | --- | --- |
| Oc1nc(-c2ccccc2)nc2c1[nH]c1ccccc12 [Compound 2, 4-Hydroxy-2-phenyl-5H-indolo[3,2-d]pyrimidine] | 100 |  |
